As usually defined, the IC50 is the point on the concentration scale where inhibition reaches its midpoint. Read a high IC50 as lower potency.

Data on three molecules can be found in publication PMC8456368 (Bioorganic & medicinal chemistry, 2021).

For test [1], the target named is T1, GST-MKK3 and full-length VF-MYC interaction (Homo sapiens, UniProt P46734).
T1 sequence (P46734 1-347): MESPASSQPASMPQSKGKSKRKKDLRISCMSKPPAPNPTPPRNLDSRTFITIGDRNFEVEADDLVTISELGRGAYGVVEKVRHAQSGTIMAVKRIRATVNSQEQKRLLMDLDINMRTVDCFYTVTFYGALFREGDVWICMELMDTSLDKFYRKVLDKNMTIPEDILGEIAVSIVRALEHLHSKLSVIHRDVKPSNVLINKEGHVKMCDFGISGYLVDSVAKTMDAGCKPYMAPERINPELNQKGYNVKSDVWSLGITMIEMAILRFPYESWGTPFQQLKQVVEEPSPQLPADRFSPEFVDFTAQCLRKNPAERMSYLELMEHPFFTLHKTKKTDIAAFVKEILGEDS
Briefly: dose-response cell lysate-based TR-FRET assay. It is filed as binding. As to conditions: for inhibition of MKK3-MYC PPI in dose-response TR-FRET: up to 100 µM compound. Background: In TR-FRET formats the signal depends on donor and acceptor labels being close together.

Test [2] concerns MYC transcriptional activity in HCT116 cells. The experiment in a line: luciferase-based MYC reporter assay. It is filed as cell-based. As to conditions: HCT116 cells expressing VF-MKK3; 0.5 to 5 µM, 12 hours. Background: In a reporter assay the amount or activity of a reporter protein is the signal.
The test system of test [3] is MYC, CDK4 and PD-L1 level in HCT116 cells. Briefly: Western blot of MYC and MYC-target genes. The test is classed as cell-based. As to conditions: RG108 up to 10 µM. For orientation: A western blot detects proteins with antibodies after separation by electrophoresis.
The subject of another test is Renilla luciferase. Briefly: luciferase interference control. As to conditions: cells treated with 10 µM, vs DMSO control. The test is classed as cell-based.
The target of test [4] is T2, GST-MKK3 association with endogenous MYC in HCT116 cells (Homo sapiens, UniProt P46734).
T2 sequence (P46734 1-347): T1 sequence (P46734 1-347)
Briefly: GST pull-down from compound-treated cells. The test is classed as cell-based. As to conditions: HCT116 cells treated with increased concentration.

The target of another test is T3, MKK3-MYC PPI (Homo sapiens, UniProt P46734).
T3 sequence (P46734 1-347): T1 sequence (P46734 1-347)
The experiment in a line: GST pull-down PPI inhibition assay, compound-treated HEK293T lysates. The test is classed as binding. As to conditions: lysates treated with 50 µM.

A further test addresses MYC-MAX PPI (Homo sapiens, UniProt P01106). The description is as above. As to conditions: up to 50 µM. It is filed as binding.
Test [5] deals with phosphorylation of MKK3 substrate p38 in HEK293T cells. The experiment in a line: p38 phosphorylation in compound-treated cells. It is filed as cell-based. As to conditions: HEK293T cells incubated with compound.
The next test has as its target T4, MKK3-p38 PPI (Homo sapiens, UniProt P46734).
T4 sequence (P46734 1-347): T1 sequence (P46734 1-347)
The experiment in a line: GST pull-down PPI inhibition assay, compound-treated HEK293T lysates. As to conditions: up to 50 µM. The test is classed as binding.

Test [6] has as its system MYC transcriptional activity in MDA-MB-468 cells. Briefly: luciferase-based MYC reporter assay. The test is classed as cell-based. As to conditions: MDA-MB-468 cells expressing VF-MKK3; 0.5 to 5 µM, 12 hours.
The test system of test [7] is MYC level in MDA-MB-468 cells. The experiment in a line: Western blot of MYC level. The test is classed as cell-based. As to conditions: increasing concentration.

Chain of MYC-MAX PPI (P01106 16-454): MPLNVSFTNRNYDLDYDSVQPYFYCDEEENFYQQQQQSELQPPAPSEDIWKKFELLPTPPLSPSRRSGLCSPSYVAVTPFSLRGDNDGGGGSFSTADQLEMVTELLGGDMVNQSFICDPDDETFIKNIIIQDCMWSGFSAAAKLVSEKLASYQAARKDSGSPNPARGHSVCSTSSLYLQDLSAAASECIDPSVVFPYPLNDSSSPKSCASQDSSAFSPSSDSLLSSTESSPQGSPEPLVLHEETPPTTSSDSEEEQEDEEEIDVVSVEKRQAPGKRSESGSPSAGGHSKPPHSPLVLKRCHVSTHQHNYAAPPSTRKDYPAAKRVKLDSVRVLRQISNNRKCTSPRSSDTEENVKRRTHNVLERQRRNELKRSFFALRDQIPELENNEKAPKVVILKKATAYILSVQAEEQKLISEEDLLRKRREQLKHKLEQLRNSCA

Take `Cc1cc2c(C(C)C)c(O)c(O)c(C=O)c2c(O)c1-c1c(C)cc2c(C(C)C)c(O)c(O)c(C=O)c2c1O` [AT101, (−)-1,1’,6,6’,7,7’-Hexahydroxy-3,3’-dimethyl-5,5’-bis(1-methylethyl)-[2,2’-binaphthalene]-8,8’dicarboxaldehyde]: in [1], the “inhibition of MKK3-MYC PPI in dose-response TR-FRET” value is recorded as “did not demonstrate detectable inhibition”.

For `O=C(O)[C@H](Cc1c[nH]c2ccccc12)N1C(=O)c2ccccc2C1=O` [RG108], the “MKK3-induced MYC transcriptional activity, reporter assay” value in test [2] is “not suppressed”. In test [3], the “level of MYC and MYC-target genes (CDK4, PD-L1)” value is reported as “did not suppress”. Also, the “inhibition of MKK3-MYC PPI in dose-response TR-FRET” value in test [1] is “does not interfere”.

`Cc1cc(Nc2ccc(NC(=O)c3ccc(Nc4ccnc5ccccc45)cc3)cc2)nc(N)n1` [SGI-1027, N-[4-[(2-Amino-6-methylpyrimidin-4-yl)amino]phenyl]-4-(quinolin-4-ylamino)benzamide]: the “MKK3-induced MYC transcriptional activity, reporter assay” value in test [2] and in test [6] was “diminished” each time. Besides, the Renilla luciferase activity result in the test with Renilla luciferase is reported as “did not observe a decrease”. Further, the “association of GST-MKK3 with endogenous MYC” value in test [4] was “decreased association”. Besides, the “inhibition of MKK3-MYC PPI in GST pull-down” value against MKK3-MYC PPI was “confirmed the inhibition”. Also, in [3], the “level of MYC and MYC-target genes (CDK4, PD-L1)” value is “substantial decrease”. Moreover, the “suppression of MYC-MAX PPI in GST pull-down” value at MYC-MAX PPI is given as “did not observe a significant suppression”. The “phosphorylation of MKK3 substrate p38” value in test [5] is given as “did not decrease”. For the same molecule, the “suppression of MKK3-p38 PPI in GST pull-down” value on MKK3-p38 PPI is on record as “did not observe a significant suppression”. Moreover, the IC50 in test [1] is 8 µM. Further, in [7], the MYC level entry was “decreased proportionally”.
